Measured values: patent US7601744B2, “Benzothiadiazolylphenylalkylamine derivatives and methods of their use” (Wyeth, priority 2005, dated 2009)
Where a name gives a salt, the structure may show the parent alone.

Molecular target: T1, hNET (Homo sapiens, UniProt P23975)
T1 construct: expressed in transfected cells
Assay: Norepinephrine (NE) uptake assay in MDCK-Net6 cells
Type: cell-based
Conditions: [3H]NE uptake
Protocol: MDCK-Net6 cells, stably transfected with human hNET (Pacholczyk, T., R. D. Blakely, and S. G. Amara, Nature, 1991, 350(6316): p. 350-4) were cultured in growth medium containing high glucose DMEM (Gibco, Cat. No. 11995), 10% FBS (dialyzed, heat-inactivated, US Bio-Technologies, Lot FBD1129HI) and 500 µg/ml G418 (Gibco, Cat. No. 10131). Cells were plated at 300,000/T75 flask and cells were split twice weekly. The JAR cell line (human placental choriocarcinoma) was purchased from ATCC (Cat. No. HTB-144). The cells were cultured in growth medium containing RPMI 1640 (Gibco, Cat. No. 72400), 10% FBS (Irvine, Cat. No. 3000), 1% sodium pyruvate (Gibco, Cat. No. 1136) and 0.25% glucose. Cells were plated at 250,000 cells/T75 flask and split twice weekly. For all assays, cells were plated in Wallac 96-well sterile plates (PerkinElmer, Cat. No. 3983498)
On day 1, cells were plated at 3,000 cells/well in growth medium and maintained in a cell incubator (37° C., 5% CO2). On day 2, growth medium was replaced with 200 μl of assay buffer (25 mM HEPES; 120 mM NaCl; 5 mM KCl; 2.5 mM CaCl2; 1.2 mM MgSO4; 2 mg/ml glucose (pH 7.4, 37° C.)) containing 0.2 mg/ml ascorbic acid and 10 μM pargyline. […] The plates were counted in a Wallac Microbeta counter (PerkinElmer) to collect the raw cpm data. […]

T1 sequence (P23975 whole entry): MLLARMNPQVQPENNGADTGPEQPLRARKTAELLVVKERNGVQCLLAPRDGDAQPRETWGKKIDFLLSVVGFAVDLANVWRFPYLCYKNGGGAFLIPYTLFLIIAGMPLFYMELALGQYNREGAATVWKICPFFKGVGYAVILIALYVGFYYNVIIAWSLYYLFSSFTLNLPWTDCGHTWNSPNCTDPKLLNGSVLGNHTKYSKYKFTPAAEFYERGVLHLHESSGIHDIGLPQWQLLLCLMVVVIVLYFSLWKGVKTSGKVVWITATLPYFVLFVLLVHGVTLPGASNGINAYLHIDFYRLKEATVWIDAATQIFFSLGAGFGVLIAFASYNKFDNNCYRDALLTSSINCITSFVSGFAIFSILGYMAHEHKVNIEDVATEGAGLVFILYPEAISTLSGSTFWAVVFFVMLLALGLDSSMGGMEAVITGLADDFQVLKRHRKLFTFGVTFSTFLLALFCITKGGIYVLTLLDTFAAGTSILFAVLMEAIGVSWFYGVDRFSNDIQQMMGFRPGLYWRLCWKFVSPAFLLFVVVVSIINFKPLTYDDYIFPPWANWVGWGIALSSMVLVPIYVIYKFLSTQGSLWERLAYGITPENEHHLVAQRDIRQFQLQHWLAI

With `CNCC[C@@H](c1ccccc1)N1c2ccccc2N(C)S1(=O)=O` [Example 5, (3S)-N-methyl-3-(3-methyl-2,2-dioxido-2,1,3-benzothiadiazol-1(3H)-yl)-3-phenylpropan-1-amine hydrochloride] the inhibition at 6 µM was 33%.
